Measurements taken from publication PMC11816618, “Pharmacokinetic profile and in vivo anticancer efficacy of anagrelide administered subcutaneously in rodents” (Drug Delivery, 2025).
Where two headings read alike, the source gives them in different places.

Assay: PK comparison between three administration routes (IV, PO, SC), plasma LC-MS/MS
Assay type: in vivo, Sprague-Dawley rats
Conditions: for Vd/F: read-out: Vz/F
Description: The rats were purchased from SPF Biotechnology Co. Ltd. (Beijing, China). Animals were acclimated to the test facility for at least three days, during which their general health was checked by veterinary staff or other authorized personnel. Animals were kept in polycarbonate cages containing absorbent corncob bedding, with a maintained temperature range of +20-25 °C and a 12-h light/dark cycle. Animals had access to food and drinking water ad libitum during acclimation and the experiment. At the end of the study, the rats were euthanized by exposure to an increasing concentration of CO2. […] The SC formulation was prepared by dissolving micronized ANA (5 μm particle size) in an oily triglyceride ester of saturated caprylic and capric fatty acids and glycerol (Miglyol® 810 N, IOI Oleo GmbH, Hamburg, Germany). […] To evaluate plasma concentration-time profiles, blood samples were collected from the jugular vein in EDTA tubes and stored at -70 °C until further analysis. […] In the second PK analysis in rats with a longer follow-up time, blood samples were collected at 0, 30 min, 1 […], and 56 d after dosage. SD rat plasma was analyzed for ANA, 3-OH-ANA, and RL603 concentrations by Pharmaron (Beijing, China). ANA, 3-hydroxy-anagrelide (CAS No. 733043-41-9, Cat. No. sc-206647, Santa Cruz Biotechnology, Inc., Dallas, TX), and RL603 (CAS No. 327602-34-6, Cat. No. sc-391661, Santa Cruz Biotechnology, Inc., Dallas, TX) were used as reference items in calibration standards and quality control (QC) samples. The HPLC and the MS/MS (LCMS-8060) instruments were both from SHIMADZU (Kyoto, Japan), and the column used was a Raptor Biphenyl column (2.7 μm, 50 × 2.1 mm, Restek, Bellefonte, PA). The desired serial concentrations of working solutions were achieved by diluting analyte stock solution with 50% acetonitrile in water. […] These QC samples were prepared on the day of analysis in the same way as calibration standards. Carbamazepine (CAS No. 298-46-4, Sigma-Aldrich, St. Louis, MO) was used as an internal standard for all analytes. Altogether, 55 μL of standards, 55 μL of QC samples, and 55 μL of test samples (comprising 50 μL of plasma and 5 μL of blank solution) were added to 200 μL of acetonitrile containing an internal standard mixture to precipitate protein. The samples were then vortexed for 30 seconds. After centrifugation at 4000 × g (+4 °C) for 5 min, the supernatant was diluted threefold with water, and 2 μL of the diluted supernatant was injected into the LC/MS/MS system for quantitative analysis. The transitions were 256.00-198.90 m/z for anagrelide hydrochloride, 272.00-198.95 m/z for 3-hydroxy anagrelide, 216.00-198.95 m/z for RL603, and 237.20-194.10 m/z for carbamazepine. […] Plasma drug concentration-time profiles were drawn by the average plasma concentrations at specific time points using Microsoft Excel (Redmond, WA). […] Certara, Princeton, NJ) software. Averages of each variable were used when PK values were compared.

[1] = SC 1.0 mg/kg vs IV 0.5 mg/kg, SD rats
[2] = Sprague-Dawley, rat, plasma, single ANA dose 0.5 mg/kg IV, male SD rats, n = 3, mean ± SD
[3] = Sprague-Dawley, rat, plasma, single ANA dose 1.0 mg/kg SC in miglyol, male SD rats, n = 5, mean ± SD
[4] = Sprague-Dawley, rat, plasma, single ANA dose 2.5 mg/kg PO, male SD rats, n = 3, mean ± SD
[5] = Sprague-Dawley, rat, analyte in plasma after single ANA dose 0.5 mg/kg IV, male SD rats, n = 3, mean ± SD
[6] = Sprague-Dawley, rat, analyte in plasma after single ANA dose 1.0 mg/kg SC in miglyol, male SD rats, n = 5, mean ± SD
[7] = Sprague-Dawley, rat, analyte in plasma after single ANA dose 2.5 mg/kg PO, male SD rats, n = 3, mean ± SD

O=C1CN2Cc3c(ccc(Cl)c3Cl)N=C2N1 [Anagrelide, imidazo‐[2,1‐b] quinazolin‐2[3H]‐one, 6,7‐dichloro‐1,5‐dihydro, monohydro‐chloride]
AUClast lower with SC than with IV [1]: 36% | increase of T1/2 with SC administration compared to IV [1]: 25 fold | MRT inf [2]: 0.51 ± 0.08 h | clearance [2]: 31.9 ± 2.52 mL/min/kg | Vd (Sprague-Dawley, rat, plasma, single ANA dose 0.5 mg/kg IV, male SD rats, n = 3, mean ± SD, read-out: Vss): 0.97 ± 0.1 L/kg | CL/F [3]: 101 ± 37.4 mL/min/kg | MRT inf [3]: 48.1 ± 22.7 h | bioavailability [3]: 33.5 ± 9.79% | Vd/F [3]: 218 ± 149 L/kg | CL/F [4]: 718 ± 125 mL/min/kg | MRT inf [4]: 6.38 ± 1.33 h | bioavailability [4]: 4.19 ± 0.7% | Vd/F [4]: 634 ± 338 L/kg | AUC(0-inf) [5]: 262 ± 19.9 ng·h/mL | AUC(0-t) [5]: 261 ± 19.8 ng·h/mL | Cmax [5]: 497 ± 17.5 ng/mL | half-life [5]: 1.09 ± 0.22 h | AUC(0-inf) [6]: 187 ± 62 ng·h/mL | AUC(0-t) [6]: 167 ± 57.1 ng·h/mL | Cmax [6]: 12.4 ± 3.14 ng/mL | half-life [6]: 27.3 ± 24.4 h | AUC(0-inf) [7]: 59.3 ± 9.49 ng·h/mL | AUC(0-t) [7]: 51.4 ± 7.09 ng·h/mL | Cmax [7]: 18 ± 2.59 ng/mL | half-life [7]: 10.1 ± 4.93 h | time to compound elimination from plasma (after IV 0.5 mg/kg, SD rats): ≤ 6 h | decrease of plasma concentrations by the 8-h time point (after PO 2.5 mg/kg, SD rats): approximately 90% | time point after which plasma concentrations were no longer detectable (after SC 1.0 mg/kg, SD rats, except a few irregular observations near the quantification limit): 72 h | Tmax (analyte in plasma after single ANA dose 1.0 mg/kg SC in miglyol, male SD rats, n = 5, mean ± SD, 1 mg/kg): 0.80 ± 0.27 h | Tmax (male, Sprague-Dawley, rat, plasma, iv, 0.5 mg/kg, analyte in plasma after single ANA dose 0.5 mg/kg IV, male SD rats, n = 3, mean ± SD, read-out: Tmax): 0.083 h | Tmax (male, Sprague-Dawley, rat, plasma, po, 2.5 mg/kg, analyte in plasma after single ANA dose 2.5 mg/kg PO, male SD rats, n = 3, mean ± SD, read-out: Tmax): 1 h | Tmax (male, Sprague-Dawley, rat, plasma, sc, 1 mg/kg, analyte in plasma after single ANA dose 1.0 mg/kg SC in miglyol, male SD rats, n = 5, mean ± SD, read-out: Tmax): 1 h
